Legend:
fDAO / PEG-fDAO = tested on: T1, fDAO / PEG-fDAO; test: HRP-coupled o-dianisidine assay of H2O2 formation, nonlinear fit; type: biochemical; settings: pH 6.5; 25 °C; enzyme form not stated beside the value, most likely PEG-conjugated (PEG-fDAO)
T1 construct: gene DAO; DAO from Fusarium spp. supplied by Ikeda Food Research; tetramer 165 kDa; PEG conjugate (five PEG chains, succinimide-PEG ME-020CS) 206 kDa

[1] = biological target: D-amino acid oxidase isolated from Fusarium spp. (Fusarium spp.) (UniProt P24552); test: not stated; fDAO in 'the physiological solution used for testing'; how the oligomeric state was found is not told

Row | Molecule | Km (fDAO / PEG-fDAO) [µM] | stoichiometry N [1]
1 | N[C@H](Cc1ccccc1)C(=O)O [D-phenylalanine] | 220 | 
2 | D-amino acid oxidase isolated from Fusarium spp. (from UniProt P24552 23-361) (enzyme) |  | 4

Reference: PMC9197883, “Treatment with Polyethylene Glycol–Conjugated Fungal D-Amino Acid Oxidase Reduces Lung Inflammation in a Mouse Model of Chronic Granulomatous Disease” (Inflammation, 2022)
